Reference: patent US20130345215A1, “PYRAZOLOPYRIMIDONE AND PYRAZOLOPYRIDONE INHIBITORS OF TANKYRASE” (Genentech, Inc., priority 2012, published 2013)
Where two headings read alike, the source gives them in different places.

Experiments:
tankyrase 2 (TNKS2) = target: T1, tankyrase 2 (TNKS2) (Homo sapiens, UniProt Q9H2K2); test: μHTS-TNKS-IWR2 TR-FRET Binding Assay (Example 118), His6-TNKS2 substituted; conditions: procedure in Example 118 with His6-TNKS2
T1 construct: His6-tankyrase 2 (construct: 934-1166) (His6-TNKS2)
T1 sequence (Q9H2K2 934-1166): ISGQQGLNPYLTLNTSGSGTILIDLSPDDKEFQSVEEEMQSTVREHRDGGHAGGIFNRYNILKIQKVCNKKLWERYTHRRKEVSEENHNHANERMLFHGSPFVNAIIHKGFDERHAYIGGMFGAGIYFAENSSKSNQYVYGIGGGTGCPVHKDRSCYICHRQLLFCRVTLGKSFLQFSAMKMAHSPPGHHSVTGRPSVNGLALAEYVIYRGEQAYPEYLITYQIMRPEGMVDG

Tankyrase 1 (TNKS1) = target: T2, Tankyrase 1 (TNKS1) (Homo sapiens, UniProt O95271); test: μHTS-TNKS-IWR2 TR-FRET Binding Assay (Example 118), His6-TNKS1
T2 construct: His6-TNKS1, MW=28.2 KDa (construct: 1088-1327, 1266M)
T2 sequence (O95271 1088-1327): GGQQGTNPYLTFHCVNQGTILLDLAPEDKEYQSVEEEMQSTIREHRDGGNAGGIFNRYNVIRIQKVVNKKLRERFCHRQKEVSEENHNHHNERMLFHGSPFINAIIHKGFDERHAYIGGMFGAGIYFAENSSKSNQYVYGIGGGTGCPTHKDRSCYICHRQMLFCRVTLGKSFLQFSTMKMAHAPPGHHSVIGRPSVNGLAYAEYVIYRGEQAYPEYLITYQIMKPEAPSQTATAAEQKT
Outline: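 His6-TNKS1 binding to biotin-IWR2 probe measured by TR-FRET (Eu/APC, 3.5 nM/50 nM stock) in pH 7.4 Tris buffer with DTT, BSA and NP-40; TNKS1 added from 300 nM 5× stock. Compound pre-incubated with probe and enzyme 30 min at 26 °C, then detection reagents 60 min at 26 °C; single point.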

Compound	IC50 (tankyrase 2 (TNKS2)) [nM]	IC50 (Tankyrase 1 (TNKS1)) [nM]	IC50 (Tankyrase 1 (TNKS1); Compounds I-1 to I-58, procedure in Example 118 (TR-FRET, Biotin-IWR2 60 nM, TNKS 60 nM), read-out: TNKS1 (IC50)) [nM]
CCC(=O)c1cc(F)c(N2CCN(c3nc4c(cnn4C)c(=O)[nH]3)CC2)c(F)c1 [Compound I-45, 6-[4-(2 6-difluoro-4-propanoyl-phenyl)piperazin-1-yl]-1-methyl-5H-pyrazolo[3 4-d]pyrimidin-4-one]	33	28	–
6-[4-(4-fluorophenyl)-1- piperidyl]-1-methyl-5H- pyrazolo[4 3-c]pyridin-4- one [Compound I-8]	42.8	–	42
Cn1ncc2c(=O)[nH]c(N3CCN(c4c(F)cccc4F)CC3)nc21 [Compound I-2, 6-[4-(2 6-difluorophenyl)piperazin-1-yl]-1-methyl-5H-pyrazolo[3 4-d]pyrimidin-4-one]	18.7	10.9	–
COCCOc1cc(F)c(N2CCN(c3cc4c(cnn4C)c(=O)[nH]3)CC2)c(F)c1 [Compound I-53, 6-[4-[2 6-difluoro-4-(2-methoxyethoxy)phenyl]piperazin-1-yl]-1-methyl-5H-pyrazolo[4 3-c]pyridin-4-one]	19.3	26	–

Continued, in another order:

IC50 (tankyrase 2 (TNKS2)) [nM]	IC50 (Tankyrase 1 (TNKS1)) [nM]	Compound	IC50 (Tankyrase 1 (TNKS1); Compounds I-1 to I-58, procedure in Example 118 (TR-FRET, Biotin-IWR2 60 nM, TNKS 60 nM), read-out: TNKS1 (IC50)) [nM]
34.4	27	Cn1ncc2c(=O)[nH]c(N3CCN(c4ccccc4F)CC3)nc21 [Compound I-3, 6-[4-(2-fluorophenyl)piperazin-1-yl]-1-methyl-5H-pyrazolo[3 4-d]pyrimidin-4-one]	–
104	151	Cn1ncc2c(=O)[nH]c(-c3ccc(C(F)(F)F)nc3)cc21 [Compound I-29, 1-methyl-6-[6-(trifluoromethyl)-3-pyridyl]-5H-pyrazolo[4 3-c]pyridin-4-one]	–
159	108	O=c1[nH]c(N2CCC(c3ccc(F)cc3)CC2)cc2[nH]ncc12 [Compound I-11, 6-[4-(4-fluorophenyl)-1-piperidyl]-1 5-dihydropyrazolo[4 3-c]pyridin-4-one]	–
664	374	O=c1[nH]c(N2CCC(c3ccc(F)cc3)CC2)nc2[nH]ncc12 [Compound I-9, 6-[4-(4-fluorophenyl)-1-piperidyl]-1 5-dihydropyrazolo[3 4-d]pyrimidin-4-one]	–
303	331	Cn1ncc2c(=O)[nH]c(N3CCN(c4ccc(F)c(C(F)(F)F)c4)CC3)nc21 [Compound I-39, 6-[4-(4-fluoro-3-(trifluoromethyl)phenyl]piperazin-1-yl]-1-methyl-5H-pyrazolo[3 4-d]pyrimidin-4-one]	–
32.6	34	Cn1ncc2c(=O)[nH]c(N3CCN(c4c(F)cc([N+](=O)[O-])cc4F)CC3)nc21 [Compound I-49, 6-[4-(2 6-difluoro-4-nitro-phenyl)piperazin-1-yl]-1-methyl-5H-pyrazolo[3 4-d]pyrimidin-4-one]	–
